Laboratory results published in patent publication US20110293593A1, “SIVA 2 STABILIZATION” (YEDA RESEARCH AND DEVELOPMENT CO., LTD., priority 2008, published 2011).
Peptide text beside a SMILES is read from it. * marks the point of attachment. Cbz = O=C(OCc1ccccc1)*

Legend:
SIVA2 [1] = assay: SIVA2 protein level in PBMCs, western blotting with anti-SIVA antibody; type: cell-based, human; conditions: for SIVA2 levels in activated PBMCs: PHA-activated PBMCs, CPT 10 μM, CIS 50 μM for 18 h, MG132 last 4 h; for SIVA2 expression: resting PBMCs, ligands for 8 h
Experimental: For each cell line, cellular protein (30 μg) was resolved by 13.5% SDS-PAGE and probed with anti-SIVA antibody. The two lanes at the right show SIVA1 and SIVA2 overexpressed in HEK-293T cells (for each protein, 2 μg cDNA/well in 6-well plates). […] Cells (2×10^6) were treated with the indicated ligands for 8 h and the cell lysates were analyzed by western blotting. […] The cells were stimulated with PHA (1 μg/ml) for 48 h, washed twice with phosphate-buffered saline, and incubated for an additional period of 18 h without PHA. Ligands and genotoxic agents (camptothecin (CPT) 10 μM and cisplatin (CIS) 50 μM) were then applied for 18 h. MG132 was applied for the last 4 h of treatment. Except where otherwise indicated, MG132 was applied in this study at a concentration of […] denotes a non-specific band serving as loading control. […] PBMCs were activated as in FIG. 1d. Ligands were applied to the indicated cell types for 18 h. Semi-quantitative RT-PCR for SIVA message was performed as described in Methods. GAPDH was used as a basis for normalization. […] SIVA2 or SIVA1 plasmids (0.5 μg) were transfected, and 18 h later ligands were applied for 8 h. Total-cell lysates were analyzed by western blotting using anti-SIVA antibody. […] EcR-293-CD27-SIVA2 cells (see Methods) were treated with ponasterone and CD70 as indicated. Total-cell lysates were analyzed by western blotting using LDH as the loading control (bottom panel). […] HEK-293T cells were transfected with FLAG-SIVA2 and analyzed 24 h after transfection. MG132 was applied for the last 4 h of treatment. TCL, total cell lysate. […] Top: HepG2 cells were treated with CPT for 18 h. When indicated, they were transfected with pSUPER SIVA 30 h prior to CPT application. Cells lysates were analyzed by western blotting using anti-SIVA antibody. Middle: HepG2 cells were exposed to UVC (20 J/m^2) and levels of SIVA proteins were determined after 18 h of treatment. […] Bottom: HEK-293T cells were transfected with 0.5 μg of FLAG-SIVA2. CPT and CD40L were applied, 8 h after transfection, for a further 18 h.
Cells. Peripheral-blood mononuclear cells (PBMCs) were isolated from buffy-coat samples and cultured as described (Ramakrishnan et al., 2004). Ecdysone-inducible EcR-293-CD27 cell lines expressing SIVA2 (EcR-293-CD27-SIVA2) or SIVA1 (EcR-293-CD27-SIVA1) and EcR-293-CD40 were generated by transfection using the calcium phosphate method according to the instructions of the manufacturer (Invitrogen). All adherent cells—HEK-293T, EcR-293 (Invitrogen), HeLa, HeLa T-REx (Invitrogen), and HepG2—were cultured in Dulbecco's modified Eagle's medium. Both culture media were supplemented with 10% fetal calf serum, 100 U/ml pencillin, and 100 μg/ml streptomycin. The human lymphoblastoid lines Ramos (Human Burkitt's lymphoma cell line) and BJAB (B-lymphoblastoma cell line) were cultured in RPMI medium. Ecdysone-inducible EcR293-CD27 and EcR293-CD40 cell lines were generated by their stable transfection with cDNAs for human CD27 and CD40, respectively. EcR293-CD27 cell lines expressing SIVA2 (EcR293-CD27-SIVA2) or SIVA1 (EcR293-CD27-SIVA1) were generated by transfection using the calcium phosphate method, and myc NIK and myc NIK (K670A) were later introduced into these cells by retroviral transduction and selection with 1 μg/ml puromycin. Ramos cells constitutively expressing myc-NIK were generated by retroviral transduction, followed by selection with 1 μg/ml puromycin. […]

SIVA2 [2] = assay: SIVA2 level/stabilization in transfected HEK-293T and EcR-293 cells, western blotting; type: cell-based, human
Experimental: (A) Expression of SIVA1 and SIVA2 in various cell lines. For each cell line, cellular protein (30 μg) was resolved by 13.5% SDS-PAGE and probed with anti-SIVA antibody. The two lanes at the right show SIVA1 and SIVA2 overexpressed in HEK-293T cells (for each protein, 2 μg cDNA/well in 6-well plates). (B) Several SIVA isoforms are expressed in PBMCs. […] (C) Ligand activation increases the amount of SIVA2 in resting PBMCs. Cells (2×10^6) were treated with the indicated ligands for 8 h and the cell lysates were analyzed by western blotting. […] The cells were stimulated with PHA (1 μg/ml) for 48 h, washed twice with phosphate-buffered saline, and incubated for an additional period of 18 h without PHA. Ligands and genotoxic agents (camptothecin (CPT) 10 μM and cisplatin (CIS) 50 μM) were then applied for 18 h. MG132 was applied for the last 4 h of treatment. Except where otherwise indicated, MG132 was applied in this study at a concentration of […] denotes a non-specific band serving as loading control. […] PBMCs were activated as in FIG. 1d. Ligands were applied to the indicated cell types for 18 h. Semi-quantitative RT-PCR for SIVA message was performed as described in Methods. GAPDH was used as a basis for normalization. […] SIVA2 or SIVA1 plasmids (0.5 μg) were transfected, and 18 h later ligands were applied for 8 h. Total-cell lysates were analyzed by western blotting using anti-SIVA antibody. TNF-induced SIVA2 stabilization was assessed in EcR-293-CD27 cells. (G) Inducibly expressed SIVA2 is stabilized by CD70. EcR-293-CD27-SIVA2 cells (see Methods) were treated with ponasterone and CD70 as indicated. Total-cell lysates were analyzed by western blotting using LDH as the loading control (bottom panel). […] HEK-293T cells were transfected with FLAG-SIVA2 and analyzed 24 h after transfection. MG132 was applied for the last 4 h of treatment. TCL, total cell lysate. (I) Differential effects of genotoxic agents on the expression of SIVA1 and SIVA2. Top: HepG2 cells were treated with CPT for 18 h. When indicated, they were transfected with pSUPER SIVA 30 h prior to CPT application. Cells lysates were analyzed by western blotting using anti-SIVA antibody. Middle: HepG2 cells were exposed to UVC (20 J/m^2) and levels of SIVA proteins were determined after 18 h of treatment. […] Bottom: HEK-293T cells were transfected with 0.5 μg of FLAG-SIVA2. CPT and CD40L were applied, 8 h after transfection, for a further 18 h.
HEK-293T cells cotransfected with NIK and SIVA2 were metabolically labeled with azido-GlcNAc, in-vitro biotinylated, and immunoprecipitated. The biotin-labeled GlcNAc moieties in SIVA2 were detected with streptavidin horseradish peroxidase (HRP). (B) SIVA binds to wheatgerm-agglutinin. The plasmids for SIVA2, alone or together with NIK or TRAF2, were transiently expressed in HEK-293T cells. Lactacystin was applied for the last 6 h of the 24-h treatment period. Lysates were analyzed for expression (right panel) and WGA binding (left panel) of SIVA2. N-acetyl-D-glucosamine (0.5 M) was added as a competitor for WGA binding. […] FLAG-SIVA2 was cotransfected with myc-NIK into HEK-293T cells and immunoprecipitated with anti-FLAG-M2 beads. The immunoprecipitated beads were boiled with 1% SDS and the eluted proteins were treated with […] hexosaminidase as described (Whelan, 2006). The samples were collected after treatment for 4, 8, and 20 h, diluted with WGA binding buffer, and lectin binding was assayed as described in Methods. Immunoprecipitation of the protein with anti-FLAG-M2 beads after treatment for 8 h as described above, followed by western analysis, confirmed that despite having lost the ability to bind to WGA the protein remained intact. ‘Sup’, SIVA protein remaining unbound after the reaction. […] The plasmids were transiently expressed in HEK-293T cells. DON (50 μM) was applied for the last 16 h and MG132 for the last 6 h of the 28-h treatment period. […] The experiment was performed as in (D). […]

cIAP1 [3] = target: T1, cIAP1 (human, UniProt Q13490 1-618); assay: immunoprecipitation of endogenous cIAP1 from transfected HEK293T cells (FIG. 6D right panel)
T1 construct: Also used for general sentences that say only 'cIAP1'; also called endogenous cIAP1
T1 sequence (Q13490 whole entry): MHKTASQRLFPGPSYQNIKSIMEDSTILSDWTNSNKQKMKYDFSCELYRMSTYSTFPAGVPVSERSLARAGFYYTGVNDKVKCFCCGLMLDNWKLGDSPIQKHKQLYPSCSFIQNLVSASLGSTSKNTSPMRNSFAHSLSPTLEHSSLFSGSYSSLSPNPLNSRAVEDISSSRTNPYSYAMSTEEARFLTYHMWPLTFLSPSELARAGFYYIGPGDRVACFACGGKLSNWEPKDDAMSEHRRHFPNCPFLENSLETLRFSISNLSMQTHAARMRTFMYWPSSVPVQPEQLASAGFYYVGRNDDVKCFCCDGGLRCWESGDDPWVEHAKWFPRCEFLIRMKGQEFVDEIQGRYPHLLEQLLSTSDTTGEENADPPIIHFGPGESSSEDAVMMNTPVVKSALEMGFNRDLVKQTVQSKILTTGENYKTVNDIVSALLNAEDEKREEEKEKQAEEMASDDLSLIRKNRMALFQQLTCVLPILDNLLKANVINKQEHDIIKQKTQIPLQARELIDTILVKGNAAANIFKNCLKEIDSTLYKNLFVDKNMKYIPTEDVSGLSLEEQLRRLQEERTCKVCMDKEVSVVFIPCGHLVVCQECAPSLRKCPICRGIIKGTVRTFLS
Experimental: (§1) Left panel: Binding in vitro. […] Right and bottom panels depict binding in transfected HEK293T cells. […] After 28 h the endogenous cIAP1 was immunoprecipitated. MG132 was applied for the last 6 h of incubation. […] After 28 h the transfected proteins were immunoprecipitated and probed for co-precipitated endogenous cIAP1. MG132 was applied for the last 6 h of incubation. […] N/A, not analyzed. The asterisk denotes assessment in the yeast two-hybrid test. […] The indicated plasmids were co-transfected into HEK293T cells.

cIAP1 [4] = target: T1, cIAP1; assay: immunoprecipitation of the transfected protein, probed for co-precipitated endogenous cIAP1 (FIG. 6D bottom panel)
Experimental: as §1

SIVA1 = SIVA1 protein level in PBMCs, western blotting with anti-SIVA antibody; type: cell-based, human; conditions: resting PBMCs, ligands for 8 h
Experimental: For each cell line, cellular protein (30 μg) was resolved by 13.5% SDS-PAGE and probed with anti-SIVA antibody. The two lanes at the right show SIVA1 and SIVA2 overexpressed in HEK-293T cells (for each protein, 2 μg cDNA/well in 6-well plates). […] Cells (2×10^6) were treated with the indicated ligands for 8 h and the cell lysates were analyzed by western blotting. […] The cells were stimulated with PHA (1 μg/ml) for 48 h, washed twice with phosphate-buffered saline, and incubated for an additional period of 18 h without PHA. Ligands and genotoxic agents (camptothecin (CPT) 10 μM and cisplatin (CIS) 50 μM) were then applied for 18 h. MG132 was applied for the last 4 h of treatment. Except where otherwise indicated, MG132 was applied in this study at a concentration of […] denotes a non-specific band serving as loading control. […] Semi-quantitative RT-PCR for SIVA message was performed as described in Methods. […] Total-cell lysates were analyzed by western blotting using anti-SIVA antibody. […] Total-cell lysates were analyzed by western blotting using LDH as the loading control (bottom panel). […] HEK-293T cells were transfected with FLAG-SIVA2 and analyzed 24 h after transfection. […] Cells lysates were analyzed by western blotting using anti-SIVA antibody. Middle: HepG2 cells were exposed to UVC (20 J/m^2) and levels of SIVA proteins were determined after 18 h of treatment. […]

[5] = HEK-293T, FLAG-SIVA2, MG132 last 4 h

## CC[C@@]1(O)C(=O)OCc2c1cc1n(c2=O)Cc2cc3ccccc3nc2-1 [CPT, camptothecin]
SIVA2 [1]
  SIVA2 levels in activated PBMCs: but not genotoxic stress, increase SIVA2 levels
SIVA2 [2]; HEK-293T, FLAG-SIVA2, CPT and CD40L for 18 h
  cytokine (CD40)-induced stabilization/enhancement of SIVA2 under genotoxic agent: decreased

## [N-]=[N+]=CC(=O)CC[C@H](N)C(=O)O [DON, 6-diazo-5-oxo-L-norleucine]
SIVA2 [2]; HEK-293T, DON 50 μM last 16 h, MG132 last 6 h
  MG132-induced SIVA2 stabilization: does not affect MG132-induced stabilization
SIVA2 [2]; HEK-293T, DON 50 μM last 16 h of 28 h
  TRAF2-induced SIVA2 stabilization: interferes with TRAF2-induced SIVA2 stabilization
SIVA2 [2]; HEK-293T, DON as in FIG. 3D
  NIK-mediated stabilization of wild-type SIVA2: blocks the NIK-mediated stabilization of wild-type SIVA2
  residual stabilization by NIK of the SIVA2 6SA mutant: has no effect on the residual stabilization by NIK of the SIVA2 6SA mutant

## CC(C)C[C@@H](C=O)NC(=O)[C@H](CC(C)C)NC(=O)[C@H](CC(C)C)NC(=O)OCc1ccccc1 [MG132] (Cbz-Leu-Leu-Leu-aldehyde)
SIVA2 [1]
  SIVA2 levels in activated PBMCs: increase SIVA2 levels
SIVA2 [2]; [5]
  accumulation of polyubiquitinated SIVA2: enhances accumulation of the polyubiquitinated protein
  stabilization of transiently expressed SIVA2: stabilizes transiently expressed SIVA2
SIVA2 [2]; HEK-293T, MG132 25 uM last 6 h of 24 h
  stabilization of SIVA2 (1-58) (SIVA N-terminus): stabilizes SIVA N-terminus
SIVA2 [2]; HEK-293T, MG132 added 18 h after transfection for 6 h
  stabilization of SIVA2 serine mutants: stabilize the SIVA2 serine mutants that cannot be stabilized by NIK

## CC(=O)N[C@H]1[C@@H](OCc2ccccc2)O[C@H](CO)[C@H](O)[C@@H]1O [BADGP, benzyl-α-GalNAc]
SIVA2 [2]; HEK-293T, NIK + SIVA2, 0.7, 1.4, or 2.0 mM BADGP last 16 h of 28 h
  NIK-induced SIVA2 stabilization: blocks NIK-induced SIVA2 stabilization

## N.N.[Cl][Pt][Cl] [CIS, cisplatin]
SIVA2 [1]
  SIVA2 levels in activated PBMCs: but not genotoxic stress, increase SIVA2 levels

B1: HIS-SIVA2 (other, not shown: small tags and cut ends)
chain: MPKRSCPFADVAPLQLKVRVSQRELSRGVCAERYSQEVFDPSGVASIACSSCVRAVDGKAVCGQCERALCGQCVRTCWGCGSVACTLCGLVDCSDMYEKVLCTSCAMFET
notes: Expressed by transfection in HEK293T cells
cIAP1 [3]
  binding result: binds

B2: HIS-SIVA2 (1-58) (other, not shown: small tags and cut ends)
chain: MPKRSCPFADVAPLQLKVRVSQRELSRGVCAERYSQEVFDPSGVASIACSSCVRAVDG
notes: also called SIVA N-terminus
cIAP1 [3]
  binding result: binds

B3: FLAG-SIVA2 (1-58) (other, not shown: small tags and cut ends)
chain: MPKRSCPFADVAPLQLKVRVSQRELSRGVCAERYSQEVFDPSGVASIACSSCVRAVDG
notes: also called SIVA N-terminus
cIAP1 [4]
  binding result: binds

B4: CD70: CD27 ligand; mCD70 produced by large-scale transfection of HEK-293T cells (protein, UniProt O55237 1-195, looked up)
CD70 antigen: MPEEGRPCPWVRWSGTAFQRQWPWLLLVVFITVFCCWFHCSGLLSKQQQRLLEHPEPHTAELQLNLTVPRKDPTLRWGAGPALGRSFTHGPELEEGHLRIHQDGLYRLHIQVTLANCSSPGSTLQHRATLAVGICSPAAHGISLLRGRFGQDCTVALQRLTYLVHGDVLCTNLTLPLLPSRNADETFFGVQWICP
SIVA2 [1]
  SIVA2 expression: extensive enhancement
SIVA2 [2]; EcR-293-CD27-SIVA2 cells, ponasterone
  stabilization of inducibly expressed SIVA2: stabilized
SIVA1
  SIVA1 expression: did not affect

B5: CD154: CD40 ligand; hCD40L produced by large-scale transfection of HEK-293T cells (protein, UniProt P29965 113-261, looked up)
CD40 ligand, soluble form: MQKGDQNPQIAAHVISEASSKTTSVLQWAEKGYYTMSNNLVTLENGKQLTVKRQGLYYIYAQVTFCSNREASSQAPFIASLCLKSPGRFERILLRAANTHSSAKPCGQQSIHLGGVFELQPGASVFVNVTDPSQVSHGTGFTSFGLLKL
SIVA2 [1]
  SIVA2 expression: extensive enhancement
SIVA1
  SIVA1 expression: did not affect
